Experiment: in vitro
Settings: human, hela cells, % viability

| SMILES | viability at 28.5 h, 10 µM |
| --- | --- |
| CCC(CC)C(=O)N1C[C@H]2CCc3nnc(-c4ccccc4)n3[C@H]2C1 [CBK283439] | 86.7% |
| O=C(Nc1cccc2[nH]ccc12)c1ccc(Br)cc1Cl [CBK159643] | 78.7% |
| CCCc1cnc(N2CCOCC2)nc1 [CBK028742] | 89% |
| Cc1nc(O)cc(CCn2cc(-c3cncnc3)nn2)n1 [CBK306712] | 96.2% |
| Cc1ccc(S(=O)(=O)N2CCC(n3c(=O)[nH]c4ccccc43)CC2)cc1Cl [CBK149691] | 90.8% |
| O=C(c1ncoc1-c1ccc(F)cc1)N1CCSCC1 [CBK282380] | 105% |
| Cc1ccc(-c2cc(C(=O)Nc3ccc(S(N)(=O)=O)cc3)c3ccc(Cl)c(C)c3n2)cc1 [CBK267745] | 111% |
| N#Cc1ccccc1-c1ccc(CSc2cccs2)cc1 [CBK002638] | 90.5% |
| Nc1nc(SCC(=O)NCCCO)nc2sc3c(c12)CCC3 [CBK264952] | 88.7% |
| COc1ccccc1CN(C)S(=O)(=O)c1ccc(S(N)(=O)=O)cc1 [CBK306008] | 113% |
| COc1cccc(-c2ccc(NC(=O)CCC3C(=O)Nc4ccccc43)cc2)c1 (stereo not drawn) [CBK285851] | 116% |
| Clc1ccc(Nc2nnns2)cc1Cl [CBK005211] | 100% |
| Cc1cc(/C=N/NC(=O)c2ccc(CN3CCOCC3)cc2)c(C)n1-c1ccccc1 [CBK263329] | 100% |
| Cc1cnc(Cl)c2ncn([C@H]3C[C@@H](O)[C@@H](CO)O3)c12 [CBK201234] | 97.7% |
| Cc1ccc(CNC(=O)COc2ccc(S(=O)(=O)N3CCOCC3)cc2)cc1 [CBK269816] | 87.8% |
| COc1ccc(Br)cc1S(=O)(=O)NCc1cccnc1 [CBK264023] | 90.7% |
| COc1ccc(C2(C(=O)N[C@H]3CC[C@H](O)CC3)CC2)cc1 [CBK149840] | 111% |
| Cc1cc(C(=O)N2Cc3ccccc3C2)n[nH]1 [CBK200328] | 100% |

| SMILES | viability at 28.5 h, 10 µM |
| --- | --- |
| O=C(NCCc1c[nH]c2cccc(C3(O)CCCC3)c12)C1CC1 [CBK285319] | 82.3% |
| Clc1cncc(OC(c2ccccc2)C2CC2)n1 (stereo not drawn) [CBK176042] | 78% |
| Cc1nn(C(C)CC(=O)Nc2ccnn2C(C)C)c(C)c1Cl (stereo not drawn) [CBK281537] | 95.8% |
| CC1CCCCN1C(=O)CN1C(=O)N2CCCN=C2c2ccccc21 (stereo not drawn) [CBK284393] | 79.8% |
| O=C(O)c1ccc(N2C(=O)CC(N3CCN(C/C=C/c4ccccc4)CC3)C2=O)cc1 (stereo not drawn) [CBK261402] | 92.6% |
| O=C1NCCCc2nc(Nc3ccccc3)sc21 [CBK087091] | 83.8% |
| O=C1COc2ccc(C(=O)CSc3nnc(C4CC4)n3C3CC3)cc2N1 [CBK297110] | 73.4% |
| CCN(CC)C(=O)CN(CCc1ccc(OC)c(OC)c1)C(=O)NCc1c(Cl)cccc1Cl [CBK158743] | 89.9% |
| CC(C)C(=O)N1CCCC(c2cc3cccnc3[nH]2)C1 (stereo not drawn) [CBK284994] | 96.4% |
| O=C(CO)N1CC2(CCN(CC3COc4ccccc4O3)CC2)c2ccccc21 (stereo not drawn) [CBK143951] | 105% |
| O=C(NCCN1CCCC1)c1cnc2cc(C(F)(F)F)ccc2c1O [CBK107426] | 104% |
| O=C(CSc1nnc(Cc2ccccc2)o1)N1c2ccccc2Sc2ccccc21 [CBK268008] | 96.4% |
| NNC(=O)CNC(c1cc(Br)ccc1N)c1ccccc1Cl (stereo not drawn) [CBK262977] | 87.1% |
| CCCS(=O)(=O)NC1CCN(c2nc(C(F)(F)F)nc3ccsc23)CC1 [CBK304591] | 87% |
| C[C@@H]1CN(C(=O)c2ccc3[nH]nnc3c2)C[C@H](C)O1 [CBK200369] | 104% |
| Cc1[nH]c(=O)[nH]c(=O)c1CC(=O)NCC1CCN(c2ccccc2F)C1 (stereo not drawn) [CBK304325] | 99.7% |
| COc1ccc(NC(=O)N2CCCCC2c2cccnc2)cc1 (stereo not drawn) [CBK293947] | 102% |
| COc1cccc(CC(=O)N2CCC(Cc3ccccc3-c3ccccc3)(C(N)=O)CC2)c1 [CBK285730] | 96.7% |

Reference: paper PMC12040169 (PLOS Biology, 2025)
